Test results from US20160237511A1, “METHODS FOR D[…] SENSITIVITY TO VIRAL INHIBITORS” (priority 2013, published 2016).

Legend:
[1] = system: GT3 (a/unknown) chimeric replicons (patient-derived NS5B); assay: PhenoSense HCV NS5B Assay, GT3 chimeric replicons; type: cell-based, hepatitis C virus (HCV); conditions: Example 4; for susceptibility of GT3 chimeric replicons: IC50 fold change, compared to GT1 chimeric replicons
Protocol: (§1) RTV RNA was electroporated into a Huh7 cell line, and electroporated cells were incubated in the absence and presence of serially diluted inhibitors. RNA input was monitored by measuring the amount of luciferase activity produced in the electroporated cells at 4 hours post-electroporation. Luciferase activity is expressed as relative light units (RLU). Replication capacity (RC) was determined by evaluating luciferase activity at 72-96 hours postelectroporation in the absence of inhibitor, relative to RNA input and a control reference replicon RTV (Con1). A replication defective Con1 replicon (Con1 polymerase defective) was utilized to determine assay background (data not shown). Inhibitor susceptibility was determined by evaluating the ability of RTVs to replicate in the absence and presence of inhibitor at 72-96 hours post-electroporation. The % inhibition at each serial diluted inhibitor concentration was derived as follows:
(§2) [1−([…])]×100
(§3) Inhibitor susceptibility profiles (curves) were derived from these values, and inhibition data (e.g., IC50, the inhibitor concentration required to reduce virus replication by 50%; and IC95, the inhibitor concentration required to reduce virus replication by 95%) was extrapolated from fitted curves. Inhibition data are reported as fold-change relative to that of a reference RTV (e.g., IC50 (sample)/IC50 (reference)) processed in the same assay batch (e.g., IC50 fold-change (FC) from reference). An example of the PhenoSense® HCV NS5B Assay workflow is shown in FIG. 1, and a representative inhibitor susceptibly curve is shown in FIG. 2.
(§4) To determine the susceptibility of different genotype viruses to various inhibitors, the PhenoSense® HCV NS5B Assay was used. A panel of replicons were generated that contained patient-derived NS5B regions from GT1 (a/b), GT2 (a/b/k), GT3 (a/unknown), and GT4 (a/d/n/unknown) viruses. The various chimeric replicons were used in the phenotypic susceptibility assays described herein. […]

HCV infection = conditions: cited from earlier work
[2] = system: GT1 (a/b) chimeric replicons (patient-derived NS5B); assay: PhenoSense HCV NS5B Assay, GT1 chimeric replicons; type: cell-based, hepatitis C virus (HCV); conditions: GT1a/b NS5B replicons
Protocol: as §1, §2
(§5) Inhibitor susceptibility profiles (curves) were derived from these values, and inhibition data (e.g., IC50, the inhibitor concentration required to reduce virus replication by 50%; and IC95, the inhibitor concentration required to reduce virus replication by 95%) was extrapolated from fitted curves. […]

[3] = system: GT4 (a/d/n/unknown) chimeric replicons (patient-derived NS5B); assay: PhenoSense HCV NS5B Assay, GT4 chimeric replicons; type: cell-based, hepatitis C virus (HCV); conditions: Example 4; IC50 fold change, compared to GT1 chimeric replicons
Protocol: as §1, §2, §5

[4] = system: GT2 (a/b/k) chimeric replicons (patient-derived NS5B); assay: PhenoSense HCV NS5B Assay, GT2 chimeric replicons; type: cell-based, hepatitis C virus (HCV); conditions: for susceptibility of GT2 chimeric replicons: Example 4, IC50 fold change, compared to GT1 chimeric replicons
Protocol: as §1, §2, §3, §4

[5] = system: replicons containing patient-derived NS5B regions from GT1, GT2, GT3, and GT4 viruses; assay: PhenoSense HCV NS5B Assay, luciferase replicon panel across genotypes; type: cell-based, hepatitis C virus (HCV); conditions: for variation in susceptibility within and between genotypes: GT1-GT4 chimeric replicons, IC50/IC95 fold change
Protocol: Most samples were received as frozen plasma and were accompanied by information including HCV genotype and/or subtype (e.g., 1a, 1b, 2, 3, 4) and viral load. Samples were thawed and stored in frozen aliquots if necessary, and a 200 μL aliquot was processed. Virus particles were disrupted by addition of lysis buffer containing a chaotropic agent. Genomic viral RNA (vRNA) was extracted from viral lysates using oligo-nucleotide linked magnetic beads. Purified vRNA was used as a template for first-strand cDNA synthesis in a reverse transcriptase (RT) reaction. The resulting cDNA was used as the template for the first round of a nested polymerase chain reaction (PCR) that results in the amplification of the entire NS5B region. Due to the sequence variation between different genotypes, specific RT and first and second round PCR primers were used. If genotype and/or subtype information was not available, more than one primer set can be used sequentially or in parallel.
The second round (nested) PCR amplification primer set contained restriction endonuclease recognition/cleavage sites that enable cloning of NS5B amplification products into an HCV replicon resistance test vector (RTV) for phenotypic drug susceptibility analysis. […] Plasmid DNA was purified from bacterial cultures, using silica column chromatography, and was quantified by spectrophotometry.
Prior to in vitro transcription of the RTV, the plasmid DNA template was linearized by restriction endonuclease digestion and column purified. […] In vitro transcribed RNA was column purified, quantified, and the integrity was evaluated using electrophoretic separation.
RTV RNA was electroporated into a Huh7 cell line, and electroporated cells were incubated in the absence and presence of serially diluted inhibitors. RNA input was monitored by measuring the amount of luciferase activity produced in the electroporated cells at 4 hours post-electroporation. Luciferase activity is expressed as relative light units (RLU). […]

[6] = non-primate animal species; cited from earlier work

SMILES: NC(=O)c1ncn([C@@H]2O[C@H](CO)[C@@H](O)[C@H]2O)n1 [RBV, ribavirin]
- susceptibility of GT3 chimeric replicons [1]: particularly susceptible
- half-life (HCV infection; in the body): long half-life
- anemia (HCV infection; patients): cause of anemia
- susceptibility among GT1 replicons [2]: similar
- susceptibility of GT4 chimeric replicons [3]: particularly susceptible
- susceptibility of GT2 chimeric replicons [4]: statistically significant increases
- variation in susceptibility within and between genotypes [5]: more variable between genotypes
- IC FC range ([5]; IC fold change vs Con1 reference, range over GT1-GT4 viruses (FIG. 6, FIG. 10)): 25
- teratogenic effects [6]: Significant teratogenic effects

SMILES: CC(C)OC(=O)[C@H](C)N[P@](=O)(OC[C@H]1O[C@@H](n2ccc(=O)[nH]c2=O)[C@](C)(F)[C@@H]1O)Oc1ccccc1 [SOF, sofosbuvir]
- susceptibility of GT3 viruses compared to GT2 [1]: reduced susceptibility
- susceptibility of GT3 chimeric replicons [1]: significantly reduced
- most common adverse effects (HCV infection; administered in combination with PEG-IFN): fatigue, headache, nausea, insomnia, and anemia
- reported adverse effects (HCV infection; administered in combination with ribavirin): fatigue and headache
- susceptibility among GT1 replicons [2]: similar
- susceptibility of GT4 chimeric replicons [3]: significantly reduced
- susceptibility of GT2a compared to GT2b chimeric replicons ([4]; Example 4 (FIG. 8, FIG. 9)): more increased susceptibility
- susceptibility of GT2 chimeric replicons [4]: increased susceptibility
- variation in susceptibility within and between genotypes [5]: more variable between genotypes
